Results: the supplement of paper PMC11451515

Tested on: SEM cells
Assay: cell viability relative to DMSO control; higher = less cytotoxic
Conditions: 48 h
Summary of the method: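 Viability is a per-plate percentage relative to DMSO wells, with cell-free wells as background. CellTiter-Glo One luminescence was read after 48 h at 37°C on 1536-well plates (5 μl) of NOMO1 or SEM (500 cells/well) or P12-Ichikawa (1000 cells/well) leukemia cells. The cells had been adapted for at least four passages in each medium and pin-dosed with library compounds in DMSO from 47 μM to 0.79 nM in 11 threefold steps.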

[1] = HPLM + 10% dialyzed FBS, 0.000781 µM
[2] = HPLM + 10% dialyzed FBS, 0.00234 µM
[3] = HPLM + 10% dialyzed FBS, 0.00702 µM
[4] = HPLM + 10% dialyzed FBS, 0.0211 µM
[5] = HPLM + 10% dialyzed FBS, 0.0632 µM
[6] = HPLM + 10% dialyzed FBS, 0.19 µM
[7] = HPLM + 10% dialyzed FBS, 0.569 µM
[8] = HPLM + 10% dialyzed FBS, 1.71 µM
[9] = HPLM + 10% dialyzed FBS, 5.12 µM
[10] = HPLM + 10% dialyzed FBS, 15.4 µM
[11] = HPLM + 10% dialyzed FBS, 46.1 µM
[12] = RPMI 5 mM glucose + 10% FBS, 0.000781 µM
[13] = RPMI 5 mM glucose + 10% FBS, 0.00234 µM
[14] = RPMI 5 mM glucose + 10% FBS, 0.00702 µM
[15] = RPMI 5 mM glucose + 10% FBS, 0.0211 µM
[16] = RPMI 5 mM glucose + 10% FBS, 0.0632 µM
[17] = RPMI 5 mM glucose + 10% FBS, 0.19 µM
[18] = RPMI 5 mM glucose + 10% FBS, 0.569 µM
[19] = RPMI 5 mM glucose + 10% FBS, 1.71 µM
[20] = RPMI 5 mM glucose + 10% FBS, 5.12 µM
[21] = RPMI 5 mM glucose + 10% FBS, 15.4 µM
[22] = RPMI 5 mM glucose + 10% FBS, 46.1 µM
[23] = RPMI 5 mM glucose + 10% dialyzed FBS, 0.000781 µM
[24] = RPMI 5 mM glucose + 10% dialyzed FBS, 0.00234 µM
[25] = RPMI 5 mM glucose + 10% dialyzed FBS, 0.00702 µM
[26] = RPMI 5 mM glucose + 10% dialyzed FBS, 0.0211 µM
[27] = RPMI 5 mM glucose + 10% dialyzed FBS, 0.0632 µM
[28] = RPMI 5 mM glucose + 10% dialyzed FBS, 0.19 µM
[29] = RPMI 5 mM glucose + 10% dialyzed FBS, 0.569 µM
[30] = RPMI 5 mM glucose + 10% dialyzed FBS, 1.71 µM
[31] = RPMI 5 mM glucose + 10% dialyzed FBS, 5.12 µM
[32] = RPMI 5 mM glucose + 10% dialyzed FBS, 15.4 µM
[33] = RPMI 5 mM glucose + 10% dialyzed FBS, 46.1 µM

CCC[S+](=O)([O-])Nc1ccc(F)c(C(=O)c2c[nH]c3ncc(-c4ccc(Cl)cc4)cc23)c1F
cell viability [1]: 115%
cell viability [2]: 123%
cell viability [3]: 122%
cell viability [4]: 115%
cell viability [5]: 119%
cell viability [6]: 124%
cell viability [7]: 134%
cell viability [8]: 123%
cell viability [9]: 131%
cell viability [10]: 115%
cell viability [11]: 104%
cell viability [12]: 105%
cell viability [13]: 126%
cell viability [14]: 120%
cell viability [15]: 99.5%
cell viability [16]: 127%
cell viability [17]: 126%
cell viability [18]: 128%
cell viability [19]: 121%
cell viability [20]: 128%
cell viability [21]: 119%
cell viability [22]: 107%
cell viability [23]: 113%
cell viability [24]: 98.5%
cell viability [25]: 113%
cell viability [26]: 121%
cell viability [27]: 125%
cell viability [28]: 120%
cell viability [29]: 128%
cell viability [30]: 113%
cell viability [31]: 134%
cell viability [32]: 122%
cell viability [33]: 109%

NC(=O)[C@@H](CCC(F)(F)F)N(Cc1ccc(-c2ncon2)cc1F)[S+](=O)([O-])c1ccc(Cl)cc1
cell viability [1]: 96.6%
cell viability [2]: 106%
cell viability [3]: 102%
cell viability [4]: 106%
cell viability [5]: 103%
cell viability [6]: 98.8%
cell viability [7]: 81.4%
cell viability [8]: 90.9%
cell viability [9]: 91.5%
cell viability [10]: 72.2%
cell viability [11]: 4.51%
cell viability [12]: 114%
cell viability [13]: 108%
cell viability [14]: 104%
cell viability [15]: 114%
cell viability [16]: 114%
cell viability [17]: 92.9%
cell viability [18]: 83.8%
cell viability [19]: 81.9%
cell viability [20]: 84.3%
cell viability [21]: 30%
cell viability [22]: 2.87%
cell viability [23]: 84.4%
cell viability [24]: 98.6%
cell viability [25]: 98.2%
cell viability [26]: 98.7%
cell viability [27]: 86.3%
cell viability [28]: 88.6%
cell viability [29]: 95.8%
cell viability [30]: 79.5%
cell viability [31]: 70.9%
cell viability [32]: 52.3%
cell viability [33]: 2.93%

N[C@@H](Cc1cc(I)c(Oc2cc(I)c(O)c(I)c2)c(I)c1)C(=O)O
cell viability [1]: 102%
cell viability [2]: 121%
cell viability [3]: 107%
cell viability [4]: 113%
cell viability [5]: 78.2%
cell viability [6]: 129%
cell viability [7]: 119%
cell viability [8]: 120%
cell viability [9]: 117%
cell viability [10]: 93.8%
cell viability [11]: 92.2%
cell viability [12]: 98.2%
cell viability [13]: 105%
cell viability [14]: 103%
cell viability [15]: 106%
cell viability [16]: 59.2%
cell viability [17]: 112%
cell viability [18]: 115%
cell viability [19]: 104%
cell viability [20]: 94.2%
cell viability [21]: 88.3%
cell viability [22]: 84.6%

O=C(O)CCCc1ccc(N(CCCl)CCCl)cc1
cell viability [1]: 96.5%
cell viability [2]: 108%
cell viability [3]: 112%
cell viability [4]: 119%
cell viability [5]: 120%
cell viability [6]: 129%
cell viability [7]: 125%
cell viability [8]: 136%
cell viability [9]: 120%
cell viability [10]: 102%
cell viability [11]: 55.5%
cell viability [12]: 95.7%
cell viability [13]: 91.8%
cell viability [14]: 126%
cell viability [15]: 122%
cell viability [16]: 114%
cell viability [17]: 126%
cell viability [18]: 121%
cell viability [19]: 119%
cell viability [20]: 124%
cell viability [21]: 101%
cell viability [22]: 20.2%
cell viability [23]: 97.4%
cell viability [24]: 113%
cell viability [25]: 120%
cell viability [26]: 111%
cell viability [27]: 128%
cell viability [28]: 129%
cell viability [29]: 133%
cell viability [30]: 122%
cell viability [31]: 137%
cell viability [32]: 113%
cell viability [33]: 36.8%

CC1CCN(c2cc(N3CCN(C)CC3)ccc2NC(=O)c2cc(C#N)c[nH]2)CC1
cell viability [1]: 122%
cell viability [2]: 119%
cell viability [3]: 120%
cell viability [4]: 129%
cell viability [5]: 129%
cell viability [6]: 121%
cell viability [7]: 124%
cell viability [8]: 118%
cell viability [9]: 112%
cell viability [10]: 102%
cell viability [11]: 93.6%
cell viability [12]: 119%
cell viability [13]: 124%
cell viability [14]: 136%
cell viability [15]: 137%
cell viability [16]: 123%
cell viability [17]: 123%
cell viability [18]: 133%
cell viability [19]: 129%
cell viability [20]: 92.9%
cell viability [21]: 102%
cell viability [22]: 83.5%

CCc1nc(C(N)=O)c(Nc2ccc(N3CCC(N4CCN(C)CC4)CC3)c(OC)c2)nc1NC1CCOCC1
cell viability [1]: 92.9%
cell viability [2]: 105%
cell viability [3]: 120%
cell viability [4]: 104%
cell viability [5]: 95.5%
cell viability [6]: 65%
cell viability [7]: 42.9%
cell viability [8]: 36.3%
cell viability [9]: 21.1%
cell viability [10]: 17.8%
cell viability [11]: 14.6%
cell viability [23]: 115%
cell viability [24]: 97.9%
cell viability [25]: 138%
cell viability [26]: 139%
cell viability [27]: 94%
cell viability [28]: 69.6%
cell viability [29]: 43%
cell viability [30]: 33.1%
cell viability [31]: 17%
cell viability [32]: 18.3%
cell viability [33]: 12.2%

CC=CC1=C(C(=O)O)N2C(=O)[C@@H](NC(=O)[C@H](N)c3ccc(O)cc3)[C@H]2SC1.O
cell viability [1]: 71.1%
cell viability [2]: 70.5%
cell viability [3]: 79.2%
cell viability [4]: 92.5%
cell viability [5]: 91.4%
cell viability [6]: 81.3%
cell viability [7]: 90.1%
cell viability [8]: 83.9%
cell viability [9]: 72.8%
cell viability [10]: 91.6%
cell viability [11]: 82.1%
cell viability [12]: 86.4%
cell viability [13]: 96.4%
cell viability [14]: 93.8%
cell viability [15]: 97.7%
cell viability [16]: 90.9%
cell viability [17]: 92.9%
cell viability [18]: 98.8%
cell viability [19]: 115%
cell viability [20]: 86.6%
cell viability [21]: 105%
cell viability [22]: 94.6%
cell viability [23]: 84.8%
cell viability [24]: 97%
cell viability [25]: 98.4%
cell viability [26]: 115%
cell viability [27]: 109%
cell viability [28]: 86.1%
cell viability [29]: 110%
cell viability [30]: 110%
cell viability [31]: 84.7%
cell viability [32]: 112%
cell viability [33]: 114%

COC1=C(CC=C(C)C)C2=C(\C=C/C(=O)O2)C=C1
cell viability [1]: 83.3%
cell viability [2]: 79.7%
cell viability [3]: 80.4%
cell viability [4]: 89.5%
cell viability [5]: 76.9%
cell viability [6]: 90.1%
cell viability [7]: 74.6%
cell viability [8]: 98.6%
cell viability [9]: 71.8%
cell viability [10]: 71.1%
cell viability [11]: 58.5%
cell viability [12]: 93.2%
cell viability [13]: 103%
cell viability [14]: 95.4%
cell viability [15]: 117%
cell viability [16]: 102%
cell viability [17]: 112%
cell viability [18]: 100%
cell viability [19]: 81.4%
cell viability [20]: 77.5%
cell viability [21]: 65.9%
cell viability [22]: 53.6%
cell viability [23]: 108%
cell viability [24]: 118%
cell viability [25]: 121%
cell viability [26]: 103%
cell viability [27]: 99.7%
cell viability [28]: 113%
cell viability [29]: 115%
cell viability [30]: 91.8%
cell viability [31]: 85%
cell viability [32]: 90.2%
cell viability [33]: 54.2%
